In patent US20120053165A1, “Novel Phenyl Imidazoles and Phenyl Triazoles As Gamma-Secretase Modulators” (Pfizer Inc., priority 2009, published 2012) one finds IC50 data, which are given here for 34 compounds.

The test system of this assay is production of amyloid beta protein Aβ(1-42) in human WT-APP overexpressing CHO cells.
Setting [1] is: Homo sapiens, CHO, read-out: Aβ 42 IC50, Single IC50 determination, human WT-APP overexpressing CHO cells.
Where [2] appears, read: read-out: Aβ 42 IC50, Geometric mean of 2-8 determinations, human WT-APP overexpressing CHO cells.
The mark [3] stands for this setting: Homo sapiens, CHO, read-out: Aβ 42 IC50, Geometric mean of 2-8 determinations, human WT-APP overexpressing CHO cells.

Where a name gives a salt, the structure may show the parent alone. Read-outs that look alike come from different tables or passages of the source.
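Also: Aβ(1-42) released into conditioned medium captured by ELISA after roughly 24 h compound exposure, vehicle and inhibitor controls defining maximal and minimal inhibition.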

Consider `COc1cc(C(=O)N2CC[C@@H](Oc3ccccc3C(F)(F)F)C2)ccc1-n1cnc(C)c1` [Example 69, 1-[2-methoxy-4-({(3R)-3-[2-(trifluoromethyl)phenoxy]pyrrolidin-1-yl}carbonyl)phenyl]-4-methyl-1H-imidazole], for which the IC50 (as a rule, the point on the concentration scale where inhibition reaches its midpoint) under setting [1] was 421 nM.

For `COc1cc(C(=O)NCC2(c3cccc(C(F)(F)F)c3)CCOCC2)ccc1-n1cnc(C)c1` [Example 19, 3-methoxy-4-(4-methyl-1H-imidazol-1-yl)-N-({4-[3-(tri-fluoromethyl)phenyl]tetrahydro-2H-pyran-4-yl}methyl) benzamide], the IC50 under setting [2] was determined as 757 nM. With `COc1cc(C(=O)NCCc2c[nH]c3ccc(Cl)cc23)ccc1-n1cnc(C)c1` [Example 25, N-[2-(5-chloro-1H-indol-3-yl)ethyl]-3-methoxy-4-(4-methyl-1H-imidazol-1-yl) benzamide], under setting [2], the IC50 turned out to be 195 nM.

With `COc1cc(C(=O)N(C)Cc2cccc(C(F)(F)F)c2)ccc1-n1cnc(C)c1` [Example 20, 3-methoxy-N-methyl-4-(4-methyl-1H-imidazol-1-yl)-N-[3-(trifluoro-methyl)benzyl] benzamide], the IC50 under setting [2] came to 997 nM. With `COc1cc(C(=O)NCC2(c3ccccc3)CC2)ccc1-n1cnc(C)c1` [Example 101, 3-methoxy-4-(4-methyl-1H-imidazol-1-yl)-N-[(1-phenylcyclopropyl)methyl]benzamide], under setting [3], the IC50 was 686 nM. The same measure, in the same setting: the value for `COc1cc(C(=O)N[C@H]2CCc3ccc(Cl)cc32)ccc1-n1cnc(C)c1` [Example 129, N-[(1S)-6-chloro-2,3-dihydro-1H-inden-1-yl]-3-methoxy-4-(4-methyl-1H-imidazol-1-yl)benzamide] was 605 nM. As for `COc1cc(C(=O)NCCc2ccc(Cl)cc2)ccc1-n1cnc(C)c1` [Example 103, N-[2-(4-chlorophenyl)ethyl]-3-methoxy-4-(4-methyl-1H-imidazol-1-yl)benzamide], the IC50 (Homo sapiens, CHO, read-out: Aβ 42 IC50) stood at 698 nM. In the case of `COc1cc(C(=O)NCC2(c3ccc(F)cc3)CCC2)ccc1-n1cnc(C)c1` [Example 13, N-{[1-(4-fluorophenyl)cyclobutyl]methyl}-3-methoxy-4-(4-methyl-1H-imidazol-1-yl) benzamide], the IC50 (read-out: Aβ 42 IC50, Geometric mean of 26 determinations, human WT-APP overexpressing CHO cells) is 261 nM. For `COc1ccc2c(c1)CCC2NC(=O)c1ccc(-n2cnc(C)c2)c(OC)c1` (stereo not shown) [Example 120, 3-methoxy-N-(5-methoxy-2,3-dihydro-1H-inden-1-yl)-4-(4-methyl-1H-imidazol-1-yl)benzamide], the concentration for half-maximal inhibition (IC50) under setting [1] was found to be 878 nM. As for `COc1cc(C(=O)N(Cc2cc(-c3ccccc3)ccc2C)C2CC2)ccc1-n1cnc(C)c1` [Example 123, N-cyclopropyl-3-methoxy-N-[(4-methylbi-phenyl-3-yl)methyl]-4-(4-methyl-1H-imidazol-1-yl) benzamide], the IC50 under setting [2] was 73 nM. On the same count and under the same terms, the value for `COc1cccc(C[C@@H]2CCC[C@@H]2NC(=O)c2ccc(-n3cnc(C)c3)c(OC)c2)c1` [Example 63, 3-methoxy-N-[(1S,2S)-2-(3-methoxybenzyl)cyclopentyl]-4-(4-methyl-1H-imidazol-1-yl) benzamide] was 391 nM; that for “N-[3-(3- chlorophenyl) propyl]-3- methoxy-4-(4- methyl-1H- imidazol-1-yl) benzamide [Example 46]” was 579 nM. As to `COc1cc(C(=O)N2CC(COc3cccc4c3CCC4)C2)ccc1-n1cnc(C)c1` [Example 137, 1-[4-({3-[(2,3-dihydro-1H-inden-4-yloxy)methyl]azetidin-1-yl}carbonyl)-2-methoxyphenyl]-4-methyl-1H-imidazole trifluoroacetate salt], the concentration for half-maximal inhibition (IC50) (Homo sapiens, CHO, read-out: Aβ 42 IC50, Geometric mean of at least 2 determinations, human WT-APP overexpressing CHO cells) stood at 411 nM. As to `COc1cc(C(=O)NCc2csc(-c3ccc(C(F)(F)F)cc3)n2)ccc1-n1cnc(C)c1` [Example 50, 3-methoxy-4-(4-methyl-1H-imidazol-1-yl)-N-({2-[4-(trifluoromethyl)phenyl]-1,3-thiazol-4-yl}methyl)benzamide], the IC50 under setting [3] was found to be 152 nM.

With `COc1cc(C(=O)NC(c2ccc(F)cc2)c2nc3ccccc3n2C)ccc1-n1cnc(C)c1` (stereo not shown) [Example 107, N-[(4-fluorophenyl)(1-methyl-1H-benzimidazol-2-yl)methyl]-3-methoxy-4-(4-methyl-1H-imidazol-1-yl)benzamide], the half-inhibitory concentration (IC50) under setting [3] was determined as 735 nM. Take `COc1cc(C(=O)N[C@@H](C)c2cccc(-c3ccccc3)c2)ccc1-n1cnc(C)c1` [Example 126, N-[(1S)-1-biphenyl-3-ylethyl]-3-methoxy-4-(4-methyl-1H-imidazol-1-yl) benzamide]: the IC50 under setting [2] amounted to 492 nM.

`COc1cc(C(=O)NCCOc2ccccc2Cl)ccc1-n1cnc(C)c1` [Example 90, N-[2-(2-chlorophenoxy)ethyl]-3-methoxy-4-(4-methyl-1H-imidazol-1-yl) benzamide]: the IC50 under setting [2] is 573 nM. Still for that read-out and setting: then `COc1cc(C(=O)NCc2ccc(Cl)cc2C)ccc1-n1cnc(C)c1` [Example 59, N-(4-chloro-2-methylbenzyl)-3-methoxy-4-(4-methyl-1H-imidazol-1-yl) benzamide], with 351 nM. On the same count and under the same terms, then `COc1cc(C(=O)NCC2(c3ccc(C(F)(F)F)cc3)CCCC2)ccc1-n1cnc(C)c1` [Example 33, 3-methoxy-4-(4-methyl-1H-imidazol-1-yl)-N-({1-[4-(trifluoro-methyl)phenyl]cyclopentyl}methyl) benzamide, formic acid salt], with 139 nM. Consider `COc1cc(C(=O)N[C@@H]2CCC[C@@H]2c2ccc(F)cc2)ccc1-n1cnc(C)c1` [Example 115, N-[(1R,2R)-2-(4-fluorophenyl)cyclopentyl]-3-methoxy-4-(4-methyl-1H-imidazol-1-yl)benzamide], for which the concentration for half-maximal inhibition (IC50) under setting [3] was 798 nM. With `COc1cc(C(=O)NCc2cccc(Oc3ccccc3)c2)ccc1-n1cnc(C)c1` [Example 60, 3-methoxy-4-(4-methyl-1H-imidazol-1-yl)-N-(3-phenoxybenzyl) benzamide], the half-inhibitory concentration (IC50) under setting [2] stood at 353 nM. Still for that read-out and setting: the value for `COc1cc(C(=O)NCc2cc(F)cc(C(F)(F)F)c2)ccc1-n1cnc(C)c1` [Example 62, N-[3-fluoro-5-(trifluoromethyl)benzyl]-3-methoxy-4-(4-methyl-1H-imidazol-1-yl) benzamide] was 369 nM. Take `COc1cc(C(=O)N2CCC(Oc3ccccc3C(F)(F)F)CC2)ccc1-n1cnc(C)c1` [Example 91, 1-[3-methoxy-4-(4-methyl-1H-imidazol-1-yl)benzoyl]-4-[2-(trifluoromethyl)phenoxy]piperidine]: under setting [3], the IC50 turned out to be 588 nM. As to `COc1cc(C(=O)NC2COc3ccc(C(F)(F)F)cc32)ccc1-n1cnc(C)c1` (stereo not shown) [Example 130, 3-methoxy-4-(4-methyl-1H-imidazol-1-yl)-N-[5-(trifluoro-methyl)-2,3-dihydro-1-benzofuran-3-yl]benzamide], the IC50 under setting [3] turned out to be 666 nM. On to `COc1cc(C(=O)NCc2nnc(-c3cccc(Cl)c3)o2)ccc1-n1cnc(C)c1` [Example 5, N-{[5-(3-chlorophenyl)-1,3,4-oxadiazol-2-yl]methyl}-3-methoxy-4-(4-methyl-1H-imidazol-1-yl)benzamide], for which, for the setting “Homo sapiens, CHO, read-out: GM Aβ 42B IC50, Geometric Mean of 2-8 Determinations, human WT-APP overexpressing CHO cells”, the half-maximal inhibitory concentration (IC50) was determined as 1460 nM. For the compound `COc1cc(C(=O)NCC2(c3cccc(C(F)(F)F)c3)CCC2)ccc1-n1cnc(C)c1` [Example 31, 3-methoxy-4-(4-methyl-1H-imidazol-1-yl)-N-({1-[3-(tri-fluoromethyl)phenyl]cyclobutyl}methyl) benzamide], the IC50 under setting [2] was found to be 298 nM. For `COc1cc(C(=O)N[C@@H]2COC[C@@H]2Oc2ccc(Br)cc2)ccc1-n1cnc(C)c1` [Example 48, N-[(3R,4R)-4-(4-bromophenoxy)-tetrahydro-furan-3-yl]-3-methoxy-4-(4-methylimidazol-1-yl)benzamide], under setting [3], the half-maximal inhibitory concentration (IC50) stood at 1740 nM.

For the compound `COc1cc(C(=O)NCc2nc(-c3ccc(C(F)(F)F)c(F)c3)no2)ccc1-n1cnc(C)c1` [Example 94, N-({3-[3-fluoro-4-(trifluoromethyl)phenyl]-1,2,4-oxadiazol-5-yl}methyl)-3-methoxy-4-(4-methyl-1H-imidazol-1-yl) benzamide], the IC50 under setting [2] turned out to be 610 nM. Same read-out and setting: then `COc1cc(C(=O)NCC2(c3ccc(Cl)cc3)CC2)ccc1-n1cnc(C)c1` [Example 30, N-{[1-(4-chlorophenyl)cyclopropyl]methyl}-3-methoxy-4-(4-methyl-1H-imidazol-1-yl) benzamide], with 231 nM; and `COc1cc(C(=O)NCCc2cccc(Cl)c2)ccc1-n1cnc(C)c1` [Example 21, N-[2-(3-chloro-phenyl)ethyl]-3-methoxy-4-(4-methyl-1H-imidazol-1-yl) benzamide], with 629 nM. As for `COc1cc(C(=O)N2CCCC(Oc3ccccc3C(C)C)C2)ccc1-n1cnc(C)c1` (stereo not shown) [Example 85, 3-(2-isopropylphenoxy)-1-[3-methoxy-4-(4-methyl-1H-imidazol-1-yl)benzoyl]piperidine], under setting [3], the IC50 worked out at 533 nM.

For the compound `COc1cc(C(=O)N(C)Cc2ccc3ccccc3c2)ccc1-n1cnc(C)c1` [Example 22, 3-methoxy-N-methyl-4-(4-methyl-1H-imidazol-1-yl)-N-(2-naphthyl-methyl) benzamide], the IC50 under setting [2] came to 977 nM. Turning to `CCOc1cc(C)c(CN(C(=O)c2ccc(-n3cnc(C)c3)c(OC)c2)C2CC2)cc1C(C)C` [Example 124, N-cyclopropyl-N-(4-ethoxy-5-isopropyl-2-methylbenzyl)-3-methoxy-4-(4-methyl-1H-imidazol-1-yl)benzamide], the concentration for half-maximal inhibition (IC50) under setting [3] stood at 114 nM. As to `COc1cc(C(=O)NCC(CO)c2cccc(C(F)(F)F)c2)ccc1-n1cnc(C)c1` (stereo not shown) [Example 35, N-{3-hydroxy-2-[3-(trifluoro-methyl)phenyl]propyl}-3-methoxy-4-(4-methyl-1H-imidazol-1-yl) benzamide], under setting [2], the IC50 was determined as 910 nM.
